Data as given in PubChem BioAssay (NCI).
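How tested: cells in 96-well plates exposed to compound for 48 hours at five concentrations. The concentration for 50% growth inhibition is given as GI50. The concentration for full growth arrest is given as TGI.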

Columns and labels:
Assay in all cases: DTP human tumour cell line panel, 48 h
[1] = test system: U251 CNS
[2] = test system: LOX IMVI melanoma
[3] = test system: SF-295 CNS
[4] = test system: NCI-H23 lung
[5] = test system: HCC-2998 colon
[6] = test system: EKVX NSCLC
[7] = test system: UACC-62 melanoma
[8] = test system: OVCAR-8 ovarian
[9] = test system: NCI-H226 lung

Row | Compound | TGI [1] [µM] | TGI [2] [µM] | TGI [3] [µM] | TGI [4] [µM] | TGI [5] [µM] | GI50 [6] [µM] | TGI [6] [µM] | GI50 [1] [µM] | GI50 [7] [µM] | TGI [7] [µM] | GI50 [2] [µM] | GI50 [3] [µM] | GI50 [4] [µM] | GI50 [8] [µM] | TGI [8] [µM] | GI50 [5] [µM] | GI50 [9] [µM] | TGI [9] [µM]
1 | S=c1nc(-c2cccnc2)[nH][nH]1 | > 100 | > 100 | > 100 | > 100 | > 100 |  |  |  |  |  |  |  |  |  |  |  |  | 
2 | CCCCCCN(CCCCCC)CC(O)c1ccc2c3c(cccc13)CC2 (stereo not drawn) | 22.4 | 14.6 | 12 | 18.1 | 9.67 | 6.64 | 23.1 | 7.44 | 4.4 | 17.5 | 3.42 | 1.17 | 3.7 | 13.1 | 29.4 | 3.07 | 8.06 | 22.9
3 | N#CC(NNC(=O)c1ccccc1O)c1cccc(O)c1 (stereo not drawn) | > 100 | > 100 | > 100 | 21.3 |  |  |  |  |  |  |  |  |  |  | > 100 |  |  | 88.5
4 | O=C1Nc2cccc3cc(NCC(O)CCl)cc1c23 (stereo not drawn) | > 100 | > 100 | > 100 | > 100 | > 100 |  | > 100 |  |  | > 100 |  |  |  |  | > 100 |  |  | > 100
5 | C=C(C=O)CCCC(C)[C@@H]1CCC23CC12CCC1[C@@]2(C)CCC(OC(C)=O)C(C)(C)C2CC(OC2OC(COC(C)=O)C(O)C(O)C2O)[C@]13C (stereo partly drawn) | 8.56 | 1.43 | 11.6 | 14.8 | 13.9 |  | 13.7 |  |  | 3.49 |  |  |  |  | 11.1 |  |  | 12.8
6 | COC(=O)CCC1=C(C)/C(=C/c2[nH]c(-c3ccc[nH]3)cc2OC)N=C1C | 2.43 | 0.612 | 3.64 | 3.84 | 6.73 | 1.46 | 10.8 | 0.343 | 0.295 | 0.894 | 0.17 | 0.833 | 0.587 | 0.39 | 6.69 | 1.37 | 0.38 | 1.6
7 | COc1cc2nc(-c3ccc(C(F)(F)F)cc3)cc(OCCCN3CCCCC3)c2cc1OC | 14.8 | 0.355 | 2.04 | 11.1 | 5.72 | 0.803 | 14.6 | 1.1 | 1.82 | 6.29 | 0.162 | 0.53 | 1.91 | 0.734 | 20.4 | 1.28 | 0.37 | 3.51
8 | COC(=O)CCCCCN=Cc1c(O)c(O)c(C(C)C)c2cc(C)c(-c3c(C)cc4c(C(C)C)c(O)c(O)c(C=NCCCCCC(=O)OC)c4c3O)c(O)c12 | 5.6 | 4.82 | 5.34 | > 32.5 | > 32.5 | 1.18 | > 32.5 | 1 |  |  | 1.28 | 0.911 | 1.32 | 1.27 | > 32.5 | 2.15 | 3.15 | 19
9 | N#C[C@@H]1C(n2ccc(N)nc2=O)O[C@H](CO)[C@H]1O (stereo partly drawn) | > 100 | > 100 | > 100 | > 100 | > 100 | > 100 | > 100 | 42.7 | 28 | > 100 | 11.4 | > 100 | 4.51 | 6 | > 100 | > 100 | > 57 | > 100
10 | CC(C)[C@H]1C(=O)N[C@@H](CCCN=C(N)N)C(=O)NCC(=O)N[C@@H](CC(=O)O)C(=O)N[C@H](Cc2ccccc2)C(=O)N1C | > 100 | > 100 | > 100 | 67.6 | > 100 |  |  | > 23.2 | > 100 | > 100 | 15.5 | > 82.7 | 10.6 | 7.35 | > 100 | > 100 | 9.21 | > 100
11 | COc1ccc(Cl)cc1Nc1nc(C(F)(F)F)ccc1C(=O)N/N=C/c1cc(OC)c(OC)c(OC)c1 | 15.1 | 3.28 | 2.92 | 40.6 | 19.7 | 1.36 | 13.5 | 1.75 | 2.09 | 3.74 | 1.25 | 1.09 | 5.35 | 1.59 | 4.89 | 2.24 | 3.35 | 12.6
12 | NC(=O)c1ccc(C2C3=C(CCCC3=O)OC3=C2C(=O)c2ccccc2C3=O)cc1 (stereo not drawn) | 1.22 | 1.06 | 3.18 | 1.14 | 4.29 | 0.687 | 2.83 | 0.358 | 0.217 | 0.52 | 0.181 | 1.53 | 0.202 |  |  | 2.06 | 1.89 | 3.96
13 | Cn1c(=O)c2c(ncn2CN2CCN(Cn3cnc4c3c(=O)n(C)c(=O)n4C)CC2)n(C)c1=O | > 100 | 62.4 | > 100 | > 100 |  |  | > 100 |  |  | > 100 |  |  |  |  | > 100 |  |  | > 100
14 | O=C(O)CSc1ncccc1[N+](=O)[O-] | > 100 | > 100 | > 100 | > 100 |  |  | > 100 |  |  | > 100 |  |  |  |  | > 100 |  |  | > 100
15 | Fc1cccc(Cl)c1/C=N\N=C1c2ccccc2-c2ccccc21 | > 100 | > 100 | > 100 | > 100 |  |  | > 100 |  |  | > 100 |  |  |  |  | > 100 |  |  | > 100
16 | C/C(=N\NC(N)=S)c1nc2ccc(Cl)cc2[nH]1 | 13 |  | 6.33 | 13.7 | 16.4 | 0.966 | 12.3 | 2.6 | 2.2 | 33.8 |  | 1.33 | 5.51 | 2.57 | 15.5 | 4.1 | 2.48 | 10.1
17 | O=c1[nH]c(=O)n(C2OC3COC2C3O)cc1F (stereo not drawn) | > 100 | > 100 | > 100 | > 100 | > 100 |  | > 100 |  |  |  |  |  |  |  | > 100 |  |  | > 100
18 | CCN1CSC(=S)N(CC)C1 | > 100 |  | > 100 | > 100 | > 100 |  | > 100 |  |  | > 100 |  |  |  |  | > 100 |  |  | > 100
